Results published in patent US20180200257A1, “METHODS FOR THE TREATMENT OF INFLAMMATORY DISORDERS” (Galapagos NV, priority 2015, published 2018).

Experiments:
[1] = tested on: Subjects With Active Crohn's Disease With Evidence of Mucosal Ulceration; assay: Study 3 - Aspartate Aminotransferase (AST) levels; assay type: in vivo, human
Text: Double-Blind, Randomized, Placebo-Controlled, Multi-Centre Study to Investigate the Efficacy and Safety of Compound 1 in Subjects With Active Crohn's Disease With Evidence of Mucosal Ulceration. This is a double-blind, randomized, placebo-controlled, multi-centre Phase 2 study to investigate the efficacy and safety of Compound 1 administered once daily for the treatment of active CD with evidence of mucosal ulceration. The pharmacokinetics (including a PK substudy) and pharmacodynamics of Compound 1 and metabolite in CD will also be characterised. A total of 180 eligible subjects will be randomized to receive Compound 1 or placebo in addition to their stable background treatment (eg, corticosteroids, aminosalicylates, or CD-related antibiotics). The study will consist of 2 parts, with total treatment duration of 20 weeks. Randomization in Part 1 will be stratified according the subject's previous anti-TNF exposure/response, CRP level at Screening, and oral corticosteroid use at visit Day −1. After the first 10 weeks of treatment in Part 1, patients will be re-randomized for Part 2 as shown in the diagram below and will be stratified according to the subject's clinical response, previous anti-TNF exposure/response, and oral corticosteroid use at visit Day -1. [table] AST levels determination is available at Quest Diagnostics, Clinical Trials, Quest House, 125-135 Staines Road, Hounslow, Middlesex, TW3 3JB, United Kingdom under Catalogue n#84450. For Study 3, the data are obtained at BARC Europe, 3B,Industrie Park, Zwijnaarde, B-9052 Ghent, Belgium. AST catalyzes the transamination of aspartate and 2-oxoglutarate, forming L-glutamate and oxalacetate. The oxalacetate is reduced to L-malate by malate dehydrogenase, whilst NADH is converted to NAD+, measured spectrophotometrically. Guidelines for the AST value have been issued by the association for Clinical Biochemistry and Laboratory Medicine, 130-132 Tooley Street LONDON SE1 2TU, united Kingdom, wherein the AST value should be below 34 U/l in Female and below 45 U/L in male. As disclosed in the respective study protocols for Study 1 or 2, at week 12, depending on the outcome of their treatment, the subjects may be continued in their initial treatment course, or reassigned to another treatment group in a randomized blinded fashion until week 24. Therefore, the number of subjects (N) for the period of either 12 weeks, or 24 weeks is provided to reflect this redistribution at week 12.

[2] = tested on: Subjects With Active Crohn's Disease With Evidence of Mucosal Ulceration; assay: Study 3 - Inflammatory Bowel Disease Questionnaire (IBDQ) scores; assay type: in vivo, human; conditions: 200 mg, LOCF
Text: Double-Blind, Randomized, Placebo-Controlled, Multi-Centre Study to Investigate the Efficacy and Safety of Compound 1 in Subjects With Active Crohn's Disease With Evidence of Mucosal Ulceration. This is a double-blind, randomized, placebo-controlled, multi-centre Phase 2 study to investigate the efficacy and safety of Compound 1 administered once daily for the treatment of active CD with evidence of mucosal ulceration. The pharmacokinetics (including a PK substudy) and pharmacodynamics of Compound 1 and metabolite in CD will also be characterised. A total of 180 eligible subjects will be randomized to receive Compound 1 or placebo in addition to their stable background treatment (eg, corticosteroids, aminosalicylates, or CD-related antibiotics). The study will consist of 2 parts, with total treatment duration of 20 weeks. Randomization in Part 1 will be stratified according the subject's previous anti-TNF exposure/response, CRP level at Screening, and oral corticosteroid use at visit Day -1. After the first 10 weeks of treatment in Part 1, patients will be re-randomized for Part 2 as shown in the diagram below and will be stratified according to the subject's clinical response, previous anti-TNF exposure/response, and oral corticosteroid use at visit Day -1. [table] The Inflammatory Bowel Disease Questionnaire (IBDQ) is a questionnaire for health-related quality of life assessment in patients with inflammatory bowel diseases: ulcerative colitis and Crohn's disease. It consists of 32 questions divided into four groups: bowel symptoms (10 items), systemic symptoms (5 items), emotional function (12 items) and social function (5 items). Every question has graded responses from 1 to 7, and thus the total score is ranging from 32 to 224 with higher scores representing better quality of life. The IBDQ is a validated assessment tool that reflects important changes in the quality of life of patients with IBD (adapted from […] et al, Inflamm Bowel Dis, Volume 10, Number 3, May 2004)

[3] = 10 weeks results, 200 mg q.d., week 2
[4] = 10 weeks results, 200 mg q.d., week 4
[5] = 10 weeks results, 200 mg q.d., week 6
[6] = 10 weeks results, 200 mg q.d., week 10
[7] = 20 weeks results, 200 mg q.d. week 0 to 10, to 100 mg q.d. week 10 to 20, week 2
[8] = 20 weeks results, 200 mg q.d. week 0 to 10, to 100 mg q.d. week 10 to 20, week 4
[9] = 20 weeks results, 200 mg q.d. week 0 to 10, to 100 mg q.d. week 10 to 20, week 6
[10] = 20 weeks results, 200 mg q.d. week 0 to 10, to 100 mg q.d. week 10 to 20, week 10
[11] = 20 weeks results, 200 mg q.d. week 0 to 10, to 100 mg q.d. week 10 to 20, week 12
[12] = 20 weeks results, 200 mg q.d. week 0 to 10, to 100 mg q.d. week 10 to 20, week 16
[13] = 20 weeks results, 200 mg q.d. week 0 to 10, to 100 mg q.d. week 10 to 20, week 20
[14] = 20 weeks results, 200 mg q.d. week 0 to 10, to placebo week 10 to 20, week 2
[15] = 20 weeks results, 200 mg q.d. week 0 to 10, to placebo week 10 to 20, week 4
[16] = 20 weeks results, 200 mg q.d. week 0 to 10, to placebo week 10 to 20, week 6
[17] = 20 weeks results, 200 mg q.d. week 0 to 10, to placebo week 10 to 20, week 10
[18] = 20 weeks results, 200 mg q.d. week 0 to 10, to placebo week 10 to 20, week 12
[19] = 20 weeks results, 200 mg q.d. week 0 to 10, to placebo week 10 to 20, week 16
[20] = 20 weeks results, 200 mg q.d. week 0 to 10, to placebo week 10 to 20, week 20
[21] = 20 weeks results, continued 200 mg q.d., week 2
[22] = 20 weeks results, continued 200 mg q.d., week 4
[23] = 20 weeks results, continued 200 mg q.d., week 6
[24] = 20 weeks results, continued 200 mg q.d., week 10
[25] = 20 weeks results, continued 200 mg q.d., week 12
[26] = 20 weeks results, continued 200 mg q.d., week 16
[27] = 20 weeks results, continued 200 mg q.d., week 20
[28] = 20 weeks results, placebo week 0 to 10, to 100 mg q.d. week 10 to 20, week 12
[29] = 20 weeks results, placebo week 0 to 10, to 100 mg q.d. week 10 to 20, week 16
[30] = 20 weeks results, placebo week 0 to 10, to 100 mg q.d. week 10 to 20, week 20

## O=C(Nc1nc2cccc(-c3ccc(CN4CCS(=O)(=O)CC4)cc3)n2n1)C1CC1 [Compound 1, cyclopropanecarboxylic acid {5-[4-(1,1-dioxo-thiomorpholin-4-ylmethyl)-phenyl]-[1,2,4]triazolo[1,5-a]pyridin-2-yl}-amide]
[1]; [3]
  Study 3 - AST Mean CFB: 3.0 IU/L
  Study 3 - AST Mean percentage CFB: 20.1%
[1]; [4]
  Study 3 - AST Mean CFB: 1.5 IU/L
  Study 3 - AST Mean percentage CFB: 13.4%
[1]; [5]
  Study 3 - AST Mean CFB: 1.3 IU/L
  Study 3 - AST Mean percentage CFB: 12.0%
[1]; [6]
  Study 3 - AST Mean CFB: 5.4 IU/L
  Study 3 - AST Mean percentage CFB: 38.7%
[1]; [7]
  Study 3 - AST Mean CFB: 1.50 IU/L
  Study 3 - AST Mean percentage CFB: 11.88%
[1]; [8]
  Study 3 - AST Mean CFB: 3.28 IU/L
  Study 3 - AST Mean percentage CFB: 19.48%
[1]; [9]
  Study 3 - AST Mean CFB: 1.40 IU/L
  Study 3 - AST Mean percentage CFB: 10.05%
[1]; [10]
  Study 3 - AST Mean CFB: 3.90 IU/L
  Study 3 - AST Mean percentage CFB: 23.93%
[1]; [11]
  Study 3 - AST Mean CFB: 1.13 IU/L
  Study 3 - AST Mean percentage CFB: 10.30%
[1]; [12]
  Study 3 - AST Mean CFB: 2.82 IU/L
  Study 3 - AST Mean percentage CFB: 20.91%
[1]; [13]
  Study 3 - AST Mean CFB: 8.15 IU/L
  Study 3 - AST Mean percentage CFB: 50.50%
[1]; [14]
  Study 3 - AST Mean CFB: 0.96 IU/L
  Study 3 - AST Mean percentage CFB: 8.86%
[1]; [15]
  Study 3 - AST Mean CFB: 1.96 IU/L
  Study 3 - AST Mean percentage CFB: 13.24%
[1]; [16]
  Study 3 - AST Mean CFB: 1.87 IU/L
  Study 3 - AST Mean percentage CFB: 12.17%
[1]; [17]
  Study 3 - AST Mean CFB: 7.17 IU/L
  Study 3 - AST Mean percentage CFB: 45.50%
[1]; [18]
  Study 3 - AST Mean CFB: 2.87 IU/L
  Study 3 - AST Mean percentage CFB: 14.82%
[1]; [19]
  Study 3 - AST Mean CFB: 2.62 IU/L
  Study 3 - AST Mean percentage CFB: 16.62%
[1]; [20]
  Study 3 - AST Mean CFB: 3.14 IU/L
  Study 3 - AST Mean percentage CFB: 21.09%
[1]; [21]
  Study 3 - AST Mean CFB: 4.24 IU/L
  Study 3 - AST Mean percentage CFB: 26.67%
[1]; [22]
  Study 3 - AST Mean CFB: 0.73 IU/L
  Study 3 - AST Mean percentage CFB: 11.03%
[1]; [23]
  Study 3 - AST Mean CFB: 1.12 IU/L
  Study 3 - AST Mean percentage CFB: 12.72%
[1]; [24]
  Study 3 - AST Mean CFB: 5.61 IU/L
  Study 3 - AST Mean percentage CFB: 43.70%
[1]; [25]
  Study 3 - AST Mean CFB: 1.64 IU/L
  Study 3 - AST Mean percentage CFB: 18.27%
[1]; [26]
  Study 3 - AST Mean CFB: 3.78 IU/L
  Study 3 - AST Mean percentage CFB: 32.98%
[1]; [27]
  Study 3 - AST Mean CFB: 1.53 IU/L
  Study 3 - AST Mean percentage CFB: 19.45%
[1]; [28]
  Study 3 - AST Mean CFB: 1.64 IU/L
  Study 3 - AST Mean percentage CFB: 16.84%
[1]; [29]
  Study 3 - AST Mean CFB: 0.68 IU/L
  Study 3 - AST Mean percentage CFB: 10.89%
[1]; [30]
  Study 3 - AST Mean CFB: 1.10 IU/L
  Study 3 - AST Mean percentage CFB: 16.93%
[2]; Baseline
  IBDQ Bowel symptoms: 41.07
  IBDQ Emotional status: 45.91
  IBDQ Social functioning: 19.26
  IBDQ Systemic symptoms: 16.32
  IBDQ mean CFB: 123.00
[2]; week 10
  IBDQ Bowel symptoms: 9.96
  IBDQ Emotional status: 12.07
  IBDQ Social functioning: 6.19
  IBDQ Systemic symptoms: 5.73
  IBDQ mean CFB: 33.82
